Reference: US11337964B2, “Isoindoline derivative, pharmaceutical composition and use thereof” (Kangpu Biopharmaceuticals, Ltd., priority 2017, dated 2022)

Experiments:
Assay type in all cases: biochemical
Conditions in all cases: FAM-cAMP substrate, 30 minutes at room temperature
PDE4A1A = molecular target: T1, PDE4A1A (Homo sapiens, UniProt P27815); experiment: PDE4 activity inhibition assay, PDE4A1A
T1 construct: purchased BPS 60040
Protocol: (§1) The IC50 value of the inhibitory effect of the compound on PDE4A1A, PDE4B1 and PDE4D3 was tested.
(§2) Positive compound: Trequinsin (Sigma, Cat. No. T2057).
(§3) Equipment: Wallac Victor Multi-label counter (Perkin Elmer).
(§4) I. Preparing 1× reaction liquid and termination liquid;
(§5) II. PDE enzymatic reaction; • 1) The PDE was dissolved in 1× reaction solution to form 2× enzyme solution. • 2) FAM-cAMP was dissolved in 1× reaction solution to form 2× substrate solution. • 3) Echo 550 was used to transfer the corresponding volume of the compound in DMSO solution to the reaction plate. • 4) 2× enzyme solution was added into the corresponding well of the reaction plate and incubated with the compound solution at room temperature for 15 minutes. • 5) 2× substrate solution was added into the corresponding well of the reaction plate to initiate the reaction. • 6) Reaction plate was incubated at room temperature for 30 minutes and terminated by adding termination liquid, then incubated at room temperature for 60 minutes.
(§6) The inhibition rate was calculated by Excel; IC50 was calculated by GraphPad Prism.

PDE4B1 = molecular target: T2, PDE4B1 (Homo sapiens, UniProt Q07343); experiment: PDE4 activity inhibition assay, PDE4B1
T2 construct: purchased BPS 60041
Protocol: as §1, §2, §3, §4, §5, §6

PDE4D3 = molecular target: T3, PDE4D3 (Homo sapiens, UniProt Q08499); experiment: PDE4 activity inhibition assay, PDE4D3
T3 construct: purchased BPS 60046
Protocol: as §1, §2, §3, §4, §5, §6

T3 sequence (Q08499 1-673 isoform Q08499-2): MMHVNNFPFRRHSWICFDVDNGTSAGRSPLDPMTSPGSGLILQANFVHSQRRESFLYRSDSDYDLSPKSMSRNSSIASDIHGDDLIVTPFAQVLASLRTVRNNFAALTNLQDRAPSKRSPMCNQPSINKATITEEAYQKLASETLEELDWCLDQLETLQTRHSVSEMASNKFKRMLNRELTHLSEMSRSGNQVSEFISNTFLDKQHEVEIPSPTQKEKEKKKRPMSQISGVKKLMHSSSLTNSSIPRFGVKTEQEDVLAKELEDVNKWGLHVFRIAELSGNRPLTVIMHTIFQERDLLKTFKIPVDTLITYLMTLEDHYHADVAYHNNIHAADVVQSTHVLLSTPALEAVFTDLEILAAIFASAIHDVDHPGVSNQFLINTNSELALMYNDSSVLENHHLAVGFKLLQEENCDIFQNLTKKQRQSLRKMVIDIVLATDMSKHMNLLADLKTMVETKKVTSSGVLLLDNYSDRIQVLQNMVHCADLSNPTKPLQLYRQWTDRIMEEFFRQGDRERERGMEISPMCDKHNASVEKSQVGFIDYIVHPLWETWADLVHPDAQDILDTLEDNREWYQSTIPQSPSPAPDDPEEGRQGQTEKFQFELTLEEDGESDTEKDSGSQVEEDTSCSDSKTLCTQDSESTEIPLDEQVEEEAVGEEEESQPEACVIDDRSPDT
T2 sequence (Q07343 whole entry): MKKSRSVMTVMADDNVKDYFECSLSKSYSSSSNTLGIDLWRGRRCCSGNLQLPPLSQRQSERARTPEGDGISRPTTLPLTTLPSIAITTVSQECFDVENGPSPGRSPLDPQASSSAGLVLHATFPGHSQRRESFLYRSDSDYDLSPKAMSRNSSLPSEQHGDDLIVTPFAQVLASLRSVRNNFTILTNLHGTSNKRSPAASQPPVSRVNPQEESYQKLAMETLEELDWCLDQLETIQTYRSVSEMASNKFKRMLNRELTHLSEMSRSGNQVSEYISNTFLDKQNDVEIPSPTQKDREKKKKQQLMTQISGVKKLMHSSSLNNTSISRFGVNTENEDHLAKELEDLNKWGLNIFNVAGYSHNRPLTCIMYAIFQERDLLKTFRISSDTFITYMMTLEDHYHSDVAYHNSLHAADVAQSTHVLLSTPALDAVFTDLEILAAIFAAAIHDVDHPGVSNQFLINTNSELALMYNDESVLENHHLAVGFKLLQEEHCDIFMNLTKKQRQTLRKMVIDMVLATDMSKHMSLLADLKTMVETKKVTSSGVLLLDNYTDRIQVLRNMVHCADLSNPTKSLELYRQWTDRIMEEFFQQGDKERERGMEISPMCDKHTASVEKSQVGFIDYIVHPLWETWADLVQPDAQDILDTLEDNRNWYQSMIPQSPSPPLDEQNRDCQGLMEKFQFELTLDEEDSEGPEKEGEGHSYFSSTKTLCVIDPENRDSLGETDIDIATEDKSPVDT
T1 sequence (P27815 1-647 isoform P27815-4): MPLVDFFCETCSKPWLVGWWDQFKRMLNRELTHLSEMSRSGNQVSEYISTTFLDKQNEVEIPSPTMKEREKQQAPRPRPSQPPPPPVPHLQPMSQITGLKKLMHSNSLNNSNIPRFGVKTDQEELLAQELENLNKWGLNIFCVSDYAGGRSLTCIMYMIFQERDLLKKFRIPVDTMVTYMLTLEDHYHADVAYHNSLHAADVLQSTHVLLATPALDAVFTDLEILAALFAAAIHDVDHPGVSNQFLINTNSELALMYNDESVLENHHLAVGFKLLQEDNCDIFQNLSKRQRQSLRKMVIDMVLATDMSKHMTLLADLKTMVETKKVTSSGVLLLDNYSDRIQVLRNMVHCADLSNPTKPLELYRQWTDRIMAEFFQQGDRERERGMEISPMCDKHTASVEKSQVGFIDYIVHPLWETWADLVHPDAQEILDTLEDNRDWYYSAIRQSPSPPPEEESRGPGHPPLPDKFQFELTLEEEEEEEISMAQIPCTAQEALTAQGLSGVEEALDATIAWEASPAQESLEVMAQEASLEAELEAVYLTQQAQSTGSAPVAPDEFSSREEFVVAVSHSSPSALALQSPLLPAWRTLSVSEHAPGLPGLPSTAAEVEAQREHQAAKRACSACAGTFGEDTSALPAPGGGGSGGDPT

| SMILES | IC50 (PDE4A1A) [nM] | IC50 (PDE4B1) [nM] | IC50 (PDE4D3) [nM] |
| --- | --- | --- | --- |
| CCOc1cc([C@@H](CS(C)(=O)=O)N2C(=O)c3ccc(F)c(NC(C)=O)c3C2=O)ccc1OC [Compound 302, (S)—N-(2-(1-(3-ethoxy-4-methoxyphenyl)-2-(methylsulfonyl)ethyl)-5-fluoro-1,3-dioxoisoindolin-4-yl)acetamide] | 33 | 41 | 22 |
| [2H]C([2H])([2H])Oc1ccc([C@@H](CS(C)(=O)=O)N2C(=O)c3c(Cl)ccc(NC(C)=O)c3C2=O)cc1OCC [Compound 113, (S)—N-(7-chloro-2-(1-(3-ethoxy-4-d3-methoxyphenyl)-2-(methylsulfonyl)ethyl)-1,3-dioxoisoindolin-4-yl)acetamide] | 2.1 | 5.1 | 1.3 |
| [2H]C([2H])([2H])Oc1ccc([C@@H](CS(C)(=O)=O)N2C(=O)c3cccc(NC(C)=O)c3C2=O)nc1OCC [Compound 711, (S)—N-(2-(1-(6-ethoxy-5-d3-methoxypyridin-2-yl)-2-(methylsulfonyl)ethyl)-1,3-dioxoisoindolin-4-yl)acetamide] | 1.1 | 5.1 | 2 |
| CCOc1cc(C(CS(C)(=O)=O)N2C(=O)c3ccnc(NC(C)=O)c3C2=O)ccc1OC (stereo not drawn) [Compound 401, N-(2-(1-(3-ethoxy-4-methoxyphenyl)-2-(methylsulfonyl)ethyl)-1,3-dioxo-2,3-dihydro-1H-pyrrolo[3,4-c]pyridin-4-yl)acetamide] | 182 | 211 | 110 |
| CCOc1nc(C(CS(C)(=O)=O)N2C(=O)c3cccc(NC(=O)CN(C)C)c3C2=O)ccc1OC (stereo not drawn) [Compound 754, 2-(dimethylamino)-N-(2-(1-(6-ethoxy-5-methoxypyridin-2-yl)-2-(methylsulfonyl)ethyl)-1,3-dioxoisoindolin-4-yl)acetamide] | 10.6 | 21.9 | 8 |
| [2H]C([2H])([2H])Oc1ccc([C@@H](CS(C)(=O)=O)N2C(=O)c3c(F)ccc(NC(=O)C4CC4)c3C2=O)cc1OCC [Compound 118, (S)—N-(2-(1-(3-ethoxy-4-d3-methoxyphenyl)-2-(methylsulfonyl)ethyl)-7-fluoro-1,3-dioxoisoindolin-4-yl)cyclopropanecarboxamide] | 5.1 | 8.7 | 2.5 |
| [2H]C([2H])([2H])Oc1ccc([C@@H](CS(C)(=O)=O)N2C(=O)c3cccc(NC(=O)C4CC4)c3C2=O)nc1OCC [Compound 773, (S)—N-(2-(1-(6-ethoxy-5-d3-methoxypyridin-2-yl)-2-(methylsulfonyl)ethyl)-1,3-dioxoisoindolin-4-yl)cyclopropanecarboxamide] | 1.7 | 1.7 | 1.2 |
| CCOc1nc([C@H](CS(C)(=O)=O)N2C(=O)c3cc(F)cc(NC(C)=O)c3C2=O)ccc1OC [Compound 709, (R)—N-(2-(1-(6-ethoxy-5-methoxypyridin-2-yl)-2-(methylsulfonyl)ethyl)-6-fluoro-1,3-dioxoisoindolin-4-yl)acetamide] | 17 | 32 | 11 |
| CCOc1cc([C@@H](CS(C)(=O)=O)N2C(=O)c3c(F)ccc(NC(C)=O)c3C2=O)ccc1OC [Compound 102, (S)—N-(2-(1-(3-ethoxy-4-methoxyphenyl)-2-(methylsulfonyl)ethyl)-7-fluoro-1,3-dioxoisoindolin-4-yl)acetamide] | 11 | 14 | 7.4 |
| CCOc1cc([C@@H](CS(C)(=O)=O)N2C(=O)c3c(Cl)ccc(NC(C)=O)c3C2=O)ccc1OC [Compound 111, (S)—N-(7-chloro-2-(1-(3-ethoxy-4-methoxyphenyl)-2-(methylsulfonyl)ethyl)-1,3-dioxoisoindolin-4-yl)acetamide] | 1.3 | 4.3 | 1.9 |
| [2H]C([2H])([2H])Oc1ccc([C@H](CS(C)(=O)=O)N2C(=O)c3cc(F)cc(NC(C)=O)c3C2=O)cc1OC([2H])([2H])[2H] [Compound 206, (R)—N-(2-(1-(3,4-d6-dimethoxyphenyl)-2-(methylsulfonyl)ethyl)-6-fluoro-1,3-dioxoisoindolin-4-yl)acetamide] | 1460 | 1350 | 997 |
| [2H]C([2H])([2H])Oc1ccc([C@H](CS(C)(=O)=O)N2C(=O)c3cccc(NC(C)=O)c3C2=O)nc1OCC [Compound 712, (R)—N-(2-(1-(6-ethoxy-5-d3-methoxypyridin-2-yl)-2-(methylsulfonyl)ethyl)-1,3-dioxoisoindolin-4-yl)acetamide] | 32.6 | 82.8 | 29 |

The remaining molecules from weak to strong by IC50 (PDE4A1A), led by results:

| IC50 (PDE4A1A) [nM] | IC50 (PDE4B1) [nM] | IC50 (PDE4D3) [nM] | SMILES |
| --- | --- | --- | --- |
| 273 | 390 | 201 | CCOc1cc(C(CS(C)(=O)=O)N2C(=O)c3nccc(NC(C)=O)c3C2=O)ccc1OC (stereo not drawn) [Compound 601, N-(6-(1-(3-ethoxy-4-methoxyphenyl)-2-(methylsulfonyl)ethyl)-5,7-dioxo-6,7-dihydro-5H-pyrrolo[3,4-b]pyridin-4-yl)acetamide] |
| 123 | 165 | 79 | [2H]C([2H])([2H])Oc1ccc([C@@H](CS(C)(=O)=O)N2C(=O)c3cc(F)cc(NC(C)=O)c3C2=O)cc1OC([2H])([2H])[2H] [Compound 205, (S)—N-(2-(1-(3,4-d6-dimethoxyphenyl)-2-(methylsulfonyl)ethyl)-6-fluoro-1,3-dioxoisoindolin-4-yl)acetamide] |
| 14.5 | 36.3 | 10.9 | CCOc1nc(C(CS(C)(=O)=O)N2C(=O)c3cccc(NC(=O)CO)c3C2=O)ccc1OC (stereo not drawn) [Compound 739, N-(2-(1-(6-ethoxy-5-methoxypyridin-2-yl)-2-(methylsulfonyl)ethyl)-1,3-dioxoisoindolin-4-yl)-2-hydroxyacetamide] |
| 8.3 | 12 | 4.6 | [2H]C([2H])([2H])Oc1ccc([C@@H](CS(C)(=O)=O)N2C(=O)c3c(F)ccc(NC(C)=O)c3C2=O)cc1OC([2H])([2H])C([2H])([2H])[2H] [Compound 107, (S)—N-(2-(1-(3-d5-ethoxy-4-d3-methoxyphenyl)-2-(methylsulfonyl)ethyl)-7-fluoro-1,3-dioxoisoindolin-4-yl)acetamide] |
| 6 | 17.3 | 5.7 | CCOc1cc([C@@H](CS(C)(=O)=O)N2C(=O)c3c(C#N)ccc(NC(C)=O)c3C2=O)ccc1OC [Compound 115, (S)—N-(7-cyano-2-(l 1-(3-ethoxy-4-methoxyphenyl)-2-(methylsulfonyl)ethyl)-1,3-dioxoisoindolin-4-yl)acetamide] |
| 3.4 | 7 | 0.9 | CCOc1cc(C(CS(C)(=O)=O)N2C(=O)c3c(F)ccc(NC(C)=O)c3C2=O)ccc1OC(F)F (stereo not drawn) [Compound 121, N-(2-(1-(4-(difluoromethoxy)-3-ethoxyphenyl)-2-(methylsulfonyl)ethyl)-7-fluoro-1,3-dioxoisoindolin-4-yl)acetamide] |
| 2.8 | 7.9 | 3.3 | CCOc1nc(C(CS(C)(=O)=O)N2C(=O)c3cccc(NC(=O)COC)c3C2=O)ccc1OC (stereo not drawn) [Compound 748, N-(2-(1-(6-ethoxy-5-methoxypyridin-2-yl)-2-(methylsulfonyl)ethyl)-1,3-dioxoisoindolin-4-yl)-2-methoxyacetamide] |
| 2.5 | 3.5 | 2.1 | CCOc1nc(C(CS(C)(=O)=O)N2C(=O)c3cccc(NC(C)=O)c3C2=O)ccc1OC (stereo not drawn) [Compound 701, N-(2-(1-(6-ethoxy-5-methoxypyridin-2-yl)-2-(methylsulfonyl)ethyl)-1,3-dioxoisoindolin-4-yl)acetamide] |
| 2.3 | 5.7 | 3.1 | [2H]C([2H])([2H])Oc1ccc([C@@H](CS(C)(=O)=O)N2C(=O)c3cc(F)cc(NC(C)=O)c3C2=O)nc1OCC [Compound 724, (S)—N-(2-(1-(6-ethoxy-5-d3-methoxypyridin-2-yl)-2-(methylsulfonyl)ethyl)-6-fluoro-1,3-dioxoisoindolin-4-yl)acetamide] |
| 1.6 | 1.9 | 1 | CCOc1nc([C@@H](CS(C)(=O)=O)N2C(=O)c3c(F)ccc(NC(=O)C4CC4)c3C2=O)ccc1OC [Compound 764, (S)—N-(2-(1-(6-ethoxy-5-methoxypyridin-2-yl)-2-(methylsulfonyl)ethyl)-7-fluoro-1,3-dioxoisoindolin-4-yl)cyclopropanecarboxamide] |
| 1.3 | 2.2 | 1 | [2H]C([2H])([2H])Oc1ccc([C@@H](CS(C)(=O)=O)N2C(=O)c3c(F)ccc(NC(=O)C4CC4)c3C2=O)nc1OCC [Compound 767, (S)—N-(2-(1-(6-ethoxy-5-d3-methoxypyridin-2-yl)-2-(methylsulfonyl)ethyl)-7-fluoro-1,3-dioxoisoindolin-4-yl)cyclopropanecarboxamide] |
| 0.9 | 3 | 0.7 | [2H]C([2H])([2H])Oc1ccc([C@@H](CS(C)(=O)=O)N2C(=O)c3c(F)ccc(NC(C)=O)c3C2=O)nc1OCC [Compound 718, (S)—N-(2-(1-(6-ethoxy-5-d3-methoxypyridin-2-yl)-2-(methylsulfonyl)ethyl)-7-fluoro-1,3-dioxoisoindolin-4-yl)acetamide] |
